The text below walks through data of the SangsterLogP compilation.

The term logD denotes the decadic logarithm of the distribution of all forms, ionised or not, between an organic phase and buffer at a given pH. Low values mean lower lipophilicity, high ones higher lipophilicity.

This data set is described as follows: method code SF-RC, from DOI: 10.1021/acs.jmedchem.5b00440, PMID: 26327138. Particulars: pH 7.4.
For the molecule `Ic1ccc2cc(/C=C/c3cccnc3)oc2c1`, the pH-dependent lipophilicity (logD) was 3.13.

As for `CN(C)c1ccc(/C=C/c2cc3ccc(I)cc3s2)cn1`, the log distribution coefficient (logD) turned out to be 2.85. For `CN(C)c1ccc(/C=C/c2cc3ccc(I)cc3o2)cc1`, the logD was found to be 2.11. `CN(C)c1ccc(/C=C/c2nc3ccc(I)cc3[nH]2)cn1`: the pH-dependent lipophilicity (logD) turned out to be 3.11. In the case of `Ic1ccc2nc(/C=C/c3ccccc3)oc2c1`, the logD amounted to 3.95. As for `Ic1ccc2cc(/C=C/c3cccnc3)sc2c1`, the logD turned out to be 2.95.

As for `Ic1ccc2nc(/C=C/c3cccnc3)[nH]c2c1`, the logD is 3.15. In turn, `CN(C)c1ccc(/C=C/c2nc3ccc(I)cc3s2)cn1` showed a logD of 3.25. As for `CN(C)c1ccc(C=Cc2cc3ccc(I)cc3s2)cc1`, the logD worked out at 2.4. Molecule `Ic1ccc2cc(/C=C/c3ccccc3)oc2c1` yielded a logD of 2.38. The logD values of the last two molecules are within 0.2 log units of each other. In turn, `Ic1ccc2nc(/C=C/c3ccccc3)[nH]c2c1` came in with a logD of 3.25. Molecule `CN(C)c1ccc(/C=C/c2nc3ccc(I)cc3s2)cc1` showed a logD of 3.15. Molecule `Ic1ccc2nc(/C=C/c3cccnc3)oc2c1` showed a log distribution coefficient (logD) of 3.35.

With `Ic1ccc2cc(/C=C/c3ccccc3)sc2c1`, the logD was found to be 2.34.
